Measured values: patent US10676436B2, “NLRX1 ligands” (Landos Biopharma, Inc., priority 2018, dated 2020)

What was measured:
[1] = target: T1, Human NLRX1 (NLRX1-WT) (Homo sapiens, UniProt Q86UT6); experiment: Surface plasmon resonance binding to NLRX1-WT
T1 construct: made in house; host or cells: Pichia pastoris
Procedure: NLRX1 production and purification. Human NLRX1 (www.uniprot.org; UniProtKB—Q86UT6 (NLRX1 HUMAN)) was cloned into E. coli, amplified and transfected in Pichia pastoris. P. pastoris was plated onto adenine selective media. Stable transfected colonies were selected and grown within YPD broth at 30° C. for 24 hours, 240 RPM shaking. Starter culture was used to inoculate base media (1% yeast extract, 2% peptone, 1% sorbitol, 2% yeast nitrogen base) containing biotin and buffered with potassium phosphate. Inoculated base media was incubated for 48 hours at 30° C., 240 RPM. P. pastoris was then pelleted by centrifugation and resuspended in expression media (1% sorbitol, 2% yeast nitrogen base) containing biotin and buffered with potassium phosphate. Culture was induced daily for protein production through addition of methanol and incubated for a total of 4 days at 28° C., 240 RPM. After incubation, cells were pelleted by centrifugation and lysed by sonication. Recombinant NLRX1 protein was purified by fast protein liquid chromatography (AktaPrime) using immobilized metal affinity chromatography. Fractions of protein were eluted in 1 mL aliquots and evaluated for NLRX1 content. A mutated NLRX1 protein was generated using similar methods to disrupt binding within the predicted binding site through altering four residues to alanine (D677A, F680A, F681A, and E684A).
A Biacore T200 was used to evaluate binding to the NLRX1 protein. NLRX1-WT and NLRX1-Mutant were used as proteins to immobilize onto the CM5 sensor chip. NLRX1-WT was diluted in 10 mM sodium acetate buffer at pH 4.0 and immobilized onto the flow cell to a level of ˜3700 RU, using standard amine coupling chemistry. NLRX1-Mutant was diluted in 10 mM sodium acetate buffer at pH 4.0 and immobilized onto the flow cell to a level of ˜3100 RU, using standard amine coupling chemistry. 20 mM MOPS, 150 mM NaCl, 5 mM sodium acetate, 1 mM EDTA, 0.05% Tween-20, pH 8.0 buffer (Running buffer) was used as the immobilization running buffer. Based on the immobilized response values, theoretical Rmax values were calculated. The Rmax values assume 1:1 interaction mechanism. Overnight kinetics were performed for all analytes binding to the immobilized proteins. The kinetics experiments were performed in the μL/min. presence of running buffer+1% DMSO. The flow rate of all solutions was maintained at 50 Analyte concentrations were 0 μM, 2.5 μM, 5 μM 10 μM 20 μM and 40 μM.

[2] = tested on: peripheral blood mononuclear cells (PBMCs) of ulcerative colitis patients; experiment: Ex vivo treatment of PBMCs of ulcerative colitis patients, flow cytometry; type: cell-based, human
Procedure: (§1) Samples were obtained from male and female donors clinically categorized as having moderate to severe disease. Age and current medications were not used as exclusion criteria. Whole blood was collected into heparinized vacuum tubes. Whole blood was diluted 1:3 volumes with sterile phosphate buffered saline. LeucoSep (Greiner) were prepared by addition of Lymphocyte Separation Media followed by 15 second centrifugation at max speed. Diluted whole blood was added to LeucoSep tubes. After centrifugation (2000×g, 20 min), PBMCs were collected from the interphase by Pasteur pipette. Remaining red blood cells were lysed by hypotonic lysis and suspension was filtered through a […] cell strainer. PBMCs were washed and re-suspended in sterile cell culture media, RPMI containing 10% fetal bovine serum, 2.5% Hepes solution, 1% L-glutamine, 1% penicillin/streptomycin, 1% sodium pyruvate, and 1% essential amino acids (complete RPMI).
(§2) Target cells were incubated for 24 h in complete RPMI culture media at 37° C. Cells were incubated in the presence of NX-13 ranging in concentration from 1 nM to 100 nM. NX-13 stock solution was prepared at 100 mM in dimethyl sulfoxide (DMSO) and diluted to desired concentration in culture media. DMSO concentrations were adjusted to be equal across all doses and vehicle treatments. Six hours prior to assay, cells were stimulated with phorbol 12-myristate 13-acetate (PMA) and ionomycin to stimulate cellular activation. Cells were assayed for desired data at 24 h.
(§3) Prior to collection, cells were incubated BD GolgiStop (2 μL GolgiStop to 3 mL of total media) to allow intracellular accumulation of cytokines. Cells were live stained with extracellular (CD45, CD3, CD4, CD8, CD11b) and intracellular (FOXP3, IL-10, IL-4, IFNγ, TNFα) in a sequential manner. Data was acquired on a BD FACs Celesta and analyzed using FACSDiva. Non-viable and non-singlet cells were excluded from analysis. Data is presented as percentage of CD45+ cells or % viable, singlets.

[3] = tested on: peripheral blood mononuclear cells (PBMCs) of Crohn's disease patients; experiment: Ex vivo treatment of PBMCs of Crohn's disease patients, flow cytometry; type: cell-based, human
Procedure: as §1, §2, §3

[4] = ulcerative colitis samples, 1 nM
[5] = ulcerative colitis samples, 1 to 100 nM, 24 h
[6] = PBMCs from Crohn's disease patients

T1 sequence (Q86UT6 87-975): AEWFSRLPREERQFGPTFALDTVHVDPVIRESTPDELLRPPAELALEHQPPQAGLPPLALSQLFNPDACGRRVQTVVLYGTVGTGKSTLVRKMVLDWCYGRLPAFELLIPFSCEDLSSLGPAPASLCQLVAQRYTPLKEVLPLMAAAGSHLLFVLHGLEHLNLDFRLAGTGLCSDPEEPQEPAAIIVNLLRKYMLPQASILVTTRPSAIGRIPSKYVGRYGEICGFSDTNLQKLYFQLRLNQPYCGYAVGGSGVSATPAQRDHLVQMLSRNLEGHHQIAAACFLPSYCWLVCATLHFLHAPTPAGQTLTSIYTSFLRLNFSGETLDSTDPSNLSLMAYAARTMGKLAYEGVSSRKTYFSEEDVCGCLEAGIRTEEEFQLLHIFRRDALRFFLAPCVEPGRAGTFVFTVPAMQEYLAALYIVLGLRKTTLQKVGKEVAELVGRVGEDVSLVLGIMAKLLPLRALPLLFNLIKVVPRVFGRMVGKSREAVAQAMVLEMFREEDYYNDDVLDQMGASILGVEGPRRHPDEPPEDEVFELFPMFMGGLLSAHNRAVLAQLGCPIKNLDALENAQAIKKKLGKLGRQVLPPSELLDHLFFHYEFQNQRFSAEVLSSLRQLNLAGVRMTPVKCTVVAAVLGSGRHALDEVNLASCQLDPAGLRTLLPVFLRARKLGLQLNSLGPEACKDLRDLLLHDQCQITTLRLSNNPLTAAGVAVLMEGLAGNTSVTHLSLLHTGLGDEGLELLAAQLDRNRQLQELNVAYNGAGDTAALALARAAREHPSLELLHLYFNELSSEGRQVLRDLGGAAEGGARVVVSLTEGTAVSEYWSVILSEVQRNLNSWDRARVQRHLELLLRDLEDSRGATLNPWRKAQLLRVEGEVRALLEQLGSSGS

Question: Which results are given for `Cc1cccc(Oc2cc(Oc3cccc(C)n3)cc(Oc3cccc(C)n3)c2)n1` [NX-13, 1,3,5-tris (6-methylpyridin-2-yloxy) benzene]?
Answer: binding to NLRX1 by surface plasmon resonance (in words) [1]: bind to NLRX1; Kd ([1]; 1:1 binding model fitting, read-out: steady state dissociation constant KD): 30.2 µM; amount of TNFα present in each cell (mean fluorescent intensity) ([2]; in a dose dependent manner): reduced; concentrations with significant reductions of IFNγ producing cells ([2]; ulcerative colitis samples): ≥ 10 nM; concentrations with significant reductions of TNFα producing cells ([2]; ulcerative colitis samples): ≥ 10 nM; IFNγ producing cells at 1 nM [2, 4]: significant decrease; TNF producing cells at 1 nM [2, 4]: significant reductions were not observed; percentage of IFNγ producing CD4+ T cells [2, 5]: decreased; percentage of TNFα producing CD4+ T cells [2, 5]: decreased; concentrations at which IFNγ+ cells decreased [3]: above 50 nM; concentrations at which IL10+ CD4+ T cells increased [3]: ≥ 50 nM; IFNγ+ cells [3, 6]: Dose dependent decreases; IL-4 producing CD4+ T cells [3, 6]: potently decreased; TNFα producing CD4+ T cells [3, 6]: potently decreased; percentage of IL10+ CD4+ T cells [3, 6]: increased; concentrations at which IL-4 producing CD4+ T cells decreased ([3]; as low as): ≥ 10 nM; concentrations at which TNFα producing CD4+ T cells decreased ([3]; as low as): ≥ 10 nM
